Active and inactive are the calls of the source. No cut-off for these calls is given here. Starred links: 1 amine or outer side, 2 acyl side, 3 side chain; linkers in the order of their positions; H or OH if unused. Non-standard residues stand in square brackets, D forms with d. Residues, ends and D or L forms follow the SMILES beside them. *: point of attachment. NMeβ3hLys = CN([C@@H](CCCCN)CC(=O)[*:2])[*:1]; Pentanoyl(5-guanidino) = NC(N)=NCCCCC(=O)*; X1 = [N-]=[N+]=N[C@@H](CCCNC(=N)N)C(=O)*; αMeR = C[C@](N)(CCCNC(=N)N)C(=O)O; Tle = CC(C)(C)[C@H](N)C(=O)O; X3 = C[C@](N)(CCCCN)CC(=O)*; β3hK = NCCCC[C@H](N)CC(=O)O; Ahp = NCCCCCCC(=O)O
What was measured:
[1] = Metabolic stability in rat serum assessed as half time of disappearance at 1 mM by MALDI-TOF mass spectrometry assay; format: ADME, cell-free; details: read-out: T50
[2] = test system: Rattus norvegicus; assay: Hypothermic activity in Sprague-Dawley rat assessed as decrease in core body temperature at 5 mg/kg, ip at time of maximal body temperature decrease; format: functional; details: route intraperitoneal
[3] = test system: Serum; assay: Metabolic stability in human serum assessed as compound degradation rate at 1 mM by MALDI-TOF mass spectrometry assay; format: ADME, cell-free; details: 1000 µM
[4] = test system: Rattus norvegicus; assay: Hypothermic activity in Sprague-Dawley rat assessed as time duration of maximal body temperature decrease at 5 mg/kg, ip; format: functional; details: route intraperitoneal
[5] = test system: Serum; assay: Metabolic stability in rat serum assessed as compound degradation rate at 1 mM by MALDI-TOF mass spectrometry assay; format: ADME, cell-free; details: 1000 µM
[6] = Metabolic stability in human serum assessed as half time of disappearance at 1 mM by MALDI-TOF mass spectrometry assay; format: ADME, cell-free; details: read-out: T50
[7] = target: T1, Neurotensin receptor type 1 (Homo sapiens, UniProt P30989); assay: Displacement of [125I]I-Tyr(3)NT from human NTR1
[8] = target: T1, Neurotensin receptor type 1; assay: Agonist activity at NTR1 in human HT-29 cells assessed as increase in intracellular calcium concentration by FLIPR assay; format: functional, cell-based
[9] = target: T1, Neurotensin receptor type 1; assay: Agonist activity at NTR1 in human HT-29 cells assessed as increase in intracellular calcium concentration in presence of NTR1 antagonist SR-48692 by FLIPR assay; format: functional, cell-based
[10] = target: T1, Neurotensin receptor type 1; assay: Binding affinity to human NTR1

T1 sequence (P30989 whole entry): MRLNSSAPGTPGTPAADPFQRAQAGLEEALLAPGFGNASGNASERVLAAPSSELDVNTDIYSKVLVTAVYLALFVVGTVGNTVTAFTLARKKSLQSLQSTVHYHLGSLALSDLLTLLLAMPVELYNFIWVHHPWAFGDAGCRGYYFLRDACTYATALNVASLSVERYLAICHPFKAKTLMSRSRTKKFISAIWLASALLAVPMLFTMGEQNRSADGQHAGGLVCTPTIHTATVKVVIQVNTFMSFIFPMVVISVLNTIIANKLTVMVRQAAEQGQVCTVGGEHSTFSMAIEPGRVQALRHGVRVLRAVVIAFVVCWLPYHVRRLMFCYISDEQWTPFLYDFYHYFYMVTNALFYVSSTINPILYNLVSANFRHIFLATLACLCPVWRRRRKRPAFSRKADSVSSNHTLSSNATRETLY

Structure (SMILES) | half-life at 1000 µM [1] | Activity [2] | Activity [3] | Time [4] | Activity [5] | half-life at 1000 µM [6] | IC50 [7] | Ki [7] | EC50 [8] | Activity [9] | Ki [10]
CC[C@@H](C)[C@H](NC(=O)[C@H](Cc1ccc(O)cc1)NC(=O)[C@@H]1CCCN1C(=O)[C@H](CCCNC(=N)N)NC(=O)[C@@](C)(N)CCCNC(=N)N)C(=O)N[C@@H](CC(C)C)C(=O)O | 3.65 h | -0.28 °C | 0.444 µmol/min | 150 min | 2.28 µmol/min | 18.8 h | – | – | – | – | –
CC(C)C[C@H](NC(=O)[C@@H](NC(=O)[C@H](Cc1c[nH]c2ccccc12)NC(=O)[C@@H]1CCCN1C(=O)[C@H](CCCCN)NC(=O)[C@@](C)(N)CCCNC(=N)N)C(C)(C)C)C(=O)O (H-[αMeR]KPW[Tle]L-OH) | 87.8 h | -4.28 °C | 0.064 µmol/min | 120 min | 0.095 µmol/min | 132 h | 2900 nM | 2170 nM | 1860 nM | – | –
CC(=O)N[C@@H](CCCCN)CC(=O)N[C@@H](CCCNC(=N)N)C(=O)N1CCC[C@H]1C(=O)N[C@@H](Cc1ccc(O)cc1)C(=O)N[C@H](C(=O)N[C@@H](CC(C)C)C(=O)O)C(C)(C)C (Ac-[β3hK]RPY[Tle]L-OH) | – | -3.54 °C | – | 150 min | – | – | – | – | – | – | –
CC(C)C[C@H](NC(=O)[C@@H](NC(=O)[C@H](Cc1c[nH]c2ccccc12)NC(=O)[C@@H]1CCCN1C(=O)[C@H](CCCCN)NC(=O)[C@@H](N)CCCNC(=N)N)C(C)(C)C)C(=O)O (H-RKPW[Tle]L-OH) | – | -2.11 °C | – | 120 min | – | – | – | – | – | – | –
CC[C@@H](C)[C@H](NC(=O)[C@H](Cc1ccc(O)cc1)NC(=O)[C@@H]1CCCN1C(=O)[C@H](CCCNC(=N)N)NC(=O)CCCCNC(=N)N)C(=O)N[C@@H](CC(C)C)C(=O)O | 1.45 h | -0.99 °C | 2.17 µmol/min | 120 min | 5.74 µmol/min | 3.83 h | 2.68 nM | 2.01 nM | 1.85 nM | – | –
CC[C@H](C)[C@H](NC(=O)[C@H](Cc1ccc(O)cc1)NC(=O)[C@@H]1CCCN1C(=O)[C@H](CCCNC(=N)N)NC(=O)[C@H](CCCNC(=N)N)NC(C)=O)C(=O)N[C@@H](CC(C)C)C(=O)O | 3.5 h | – | 0.701 µmol/min | – | 2.38 µmol/min | 11.9 h | – | – | – | – | –
CC[C@@H](C)[C@H](NC(=O)[C@H](Cc1ccc(O)cc1)NC(=O)[C@@H]1CCCN1C(=O)[C@H](CCCN=C(N)N)NC(=O)[C@H](CCCN=C(N)N)N=[N+]=[N-])C(=O)N[C@@H](CC(C)C)C(=O)O | 2.35 h | – | 1.65 µmol/min | – | 3.53 µmol/min | 5.05 h | 0.97 nM | 0.73 nM | 0.78 nM | – | –
CC(C)C[C@H](NC(=O)[C@@H](NC(=O)[C@H](Cc1ccc(O)cc1)NC(=O)[C@@H]1CCCN1C(=O)[C@H](CCCNC(=N)N)NC(=O)CCCCCCN)C(C)(C)C)C(=O)O (H-[Ahp]RPY[Tle]L-OH) | 74.8 h | -2.58 °C | 0.204 µmol/min | 90 min | 0.111 µmol/min | 41 h | 3.99 nM | 2.99 nM | 25.8 nM | – | –
CC[C@@H](C)[C@H](NC(=O)[C@H](Cc1ccc(O)cc1)NC(=O)[C@@H]1CCCN1C(=O)[C@H](CCCNC(=N)N)NC(=O)[C@H](CCCNC(=N)N)N=[N+]=[N-])C(=O)N[C@@H](CC(C)C)C(=O)O | – | -1 °C | – | 240 min | – | – | – | – | – | inactive | –
CC(C)C[C@H](NC(=O)[C@@H](NC(=O)[C@H](Cc1c[nH]c2ccccc12)NC(=O)[C@@H]1CCCN1C(=O)[C@H](CCCCN)NC(=O)CCCCNC(=N)N)C(C)(C)C)C(=O)O ({Pentanoyl(5-guanidino)}-KPW[Tle]L-OH) | 108 h | -5.02 °C | 0.081 µmol/min | 240 min | 0.078 µmol/min | 103 h | 842 nM | 631 nM | 783 nM | – | –
CC(C)C[C@H](NC(=O)[C@@H](NC(=O)[C@H](Cc1ccc(O)cc1)NC(=O)[C@@H]1CCCN1C(=O)[C@H](CCCNC(=N)N)NC(=O)C[C@@H](N)CCCCN)C(C)(C)C)C(=O)O (H-[β3hK]RPY[Tle]L-OH) | 0.21 h | -1.53 °C | 33.4 µmol/min | 90 min | 39.9 µmol/min | 0.25 h | 10.8 nM | 8.07 nM | 6.21 nM | inactive | –
CC[C@@H](C)[C@H](NC(=O)[C@H](Cc1ccc(O)cc1)NC(=O)[C@@H]1CCCN1C(=O)[C@H](CCCNC(=N)N)NC(=O)[C@H](CCCNC(=N)N)NC)C(=O)N[C@@H](CC(C)C)C(=O)O | 4.33 h | -1.55 °C | 0.593 µmol/min | 120 min | 1.92 µmol/min | 14 h | 0.383 nM | 0.29 nM | 0.853 nM | – | –
CC(C)C[C@H](NC(=O)[C@@H](NC(=O)[C@H](Cc1ccc(O)cc1)NC(=O)[C@@H]1CCCN1C(=O)[C@H](CCCNC(=N)N)NC(=O)C[C@@](C)(N)CCCCN)C(C)(C)C)C(=O)O (X3-RPY[Tle]L-OH) | 49.7 h | -2.13 °C | 0.194 µmol/min | 150 min | 0.166 µmol/min | 42.8 h | 13.9 nM | 10.4 nM | 6.44 nM | – | 9.9 nM
CC[C@H](C)[C@H](NC(=O)[C@H](Cc1ccc(O)cc1)NC(=O)[C@@H]1CCCN1C(=O)[C@H](CCCNC(=N)N)NC(=O)[C@@H](N)CCCNC(=N)N)C(=O)N[C@@H](CC(C)C)C(=O)O | 0.167 h | – | 29.6 µmol/min | – | 49.8 µmol/min | 0.282 h | – | – | – | – | –
CN[C@@H](CCCCN)CC(=O)N[C@@H](CCCN=C(N)N)C(=O)N1CCC[C@H]1C(=O)N[C@@H](Cc1ccc(O)cc1)C(=O)N[C@H](C(=O)N[C@@H](CC(C)C)C(=O)O)C(C)(C)C (NMeβ3hLys-RPY[Tle]L-OH) | 71.8 h | – | 0.146 µmol/min | – | 0.117 µmol/min | 57.2 h | 27 nM | 20.3 nM | 7.96 nM | – | –
CC[C@H](C)[C@H](NC(=O)[C@H](Cc1ccc(O)cc1)NC(=O)[C@@H]1CCCN1C(=O)[C@H](CCCN=C(N)N)NC(=O)[C@H](CCCN=C(N)N)NC(C)=O)C(=O)N[C@@H](CC(C)C)C(=O)O | – | -0.71 °C | – | 90 min | – | – | – | – | – | – | –
COc1cccc(OC)c1-c1cc(C(=O)NC2(C(=O)O)C3CC4CC(C3)CC2C4)nn1-c1ccnc2cc(Cl)ccc12 (stereo not given) [REMINERTANT] | – | – | – | – | – | – | 0.99 nM | – | – | – | –
CC(C)C[C@H](NC(=O)[C@@H](NC(=O)[C@H](Cc1c[nH]c2ccccc12)NC(=O)[C@@H]1CCCN1C(=O)[C@H](CCCCN)NC(=O)[C@H](CCCNC(=N)N)N=[N+]=[N-])C(C)(C)C)C(=O)O (X1-KPW[Tle]L-OH) | 67.8 h | -4.29 °C | 0.07 µmol/min | 240 min | 0.123 µmol/min | 120 h | 140 nM | 105 nM | 151 nM | inactive | –
CC(=O)N[C@@H](CCCNC(=N)N)C(=O)N[C@@H](CCCCN)C(=O)N1CCC[C@H]1C(=O)N[C@@H](Cc1c[nH]c2ccccc12)C(=O)N[C@H](C(=O)N[C@@H](CC(C)C)C(=O)O)C(C)(C)C (Ac-RKPW[Tle]L-OH) | 94.3 h | -4.3 °C | 0.068 µmol/min | 270 min | 0.089 µmol/min | 124 h | 863 nM | 647 nM | 764 nM | – | –
CC(C)C[C@H](NC(=O)[C@@H](NC(=O)[C@H](Cc1c[nH]c2ccccc12)NC(=O)[C@@H]1CCCN1C(=O)[C@H](CCCCN)NC(=O)[C@@H](N)CCCN=C(N)N)C(C)(C)C)C(=O)O (H-RKPW[Tle]L-OH) | 0.225 h | – | 31.8 µmol/min | – | 37 µmol/min | 0.263 h | 403 nM | 303 nM | 217 nM | – | –
CN[C@@H](CCCCN)CC(=O)N[C@@H](CCCNC(=N)N)C(=O)N1CCC[C@H]1C(=O)N[C@@H](Cc1ccc(O)cc1)C(=O)N[C@H](C(=O)N[C@@H](CC(C)C)C(=O)O)C(C)(C)C (NMeβ3hLys-RPY[Tle]L-OH) | – | -3.68 °C | – | 180 min | – | – | – | – | – | – | –
CC[C@H](C)[C@H](NC(=O)[C@H](Cc1ccc(O)cc1)NC(=O)[C@@H]1CCCN1C(=O)[C@H](CCCN=C(N)N)NC(=O)[C@@H](N)CCCN=C(N)N)C(=O)N[C@@H](CC(C)C)C(=O)O | – | -0.55 °C | – | 300 min | – | – | – | – | – | – | –
CC(=O)N[C@@H](CCCCN)CC(=O)N[C@@H](CCCN=C(N)N)C(=O)N1CCC[C@H]1C(=O)N[C@@H](Cc1ccc(O)cc1)C(=O)N[C@H](C(=O)N[C@@H](CC(C)C)C(=O)O)C(C)(C)C (Ac-[β3hK]RPY[Tle]L-OH) | 57 h | – | 0.153 µmol/min | – | 0.146 µmol/min | 54.5 h | 181 nM | 136 nM | 57.7 nM | – | –

— ChEMBL document CHEMBL1153387 (J Med Chem, 2009)
